From paper PMC12391994, “Synthesis of a fac-Tricarbonylrhenium(I) Complex with Pyrithione, Its Physicochemical Characterization, and Assessment of Biological Effects” (ACS Omega, 2025)
Where two headings read alike, the source gives them in different places.

Key:
[1] = molecular target: T1, cathepsin B (endopeptidase activity) (Homo sapiens, UniProt P07858); assay: Relative inhibition of cathepsin B endopeptidase activity; format: biochemical; conditions: for relative inhibition cathepsin B endopeptidase: 50 μM, substrate Z-Arg-Arg-AMC, pH 6.0
T1 construct: made in house; host or cells: E. coli
Text: (§1) Relative inhibition is expressed as a percentage of the decrease in reaction velocity in the presence of an inhibitor, in comparison to the reaction velocity in the absence of an inhibitor. For that purpose, the specific fluorogenic substrates Z-Arg-Arg-7-amido-4-methylcoumarin (Z-Arg-Arg-AMC) and 2-aminobenzoyl (Abz)-Gly-Ile-Val-Arg-Ala-Lys-(Dnp)-OH were used for cathepsin B endopeptidase and exopeptidase activities, respectively, and Z-Phe-Arg-AMC was used for cathepsin L and V activities.
(§2) Human recombinant cathepsin B was expressed in E. coli, recombinant cathepsin V was expressed in Pichia pastoris, and human recombinant cathepsin L was expressed in E. coli, as reported. − For the determination of cathepsin B endopeptidase and exopeptidase activities, 100 mM phosphate buffer (pH 6.0) and 60 mM acetate buffer (pH 5.0) were used, respectively, and for the determination of cathepsin V and L activities, 100 mM acetate buffer (pH 5.5) was used. All buffers contained 0.1% PEG 8000 (Sigma-Aldrich, St. Louis, MO), 5 mM cysteine, and 1.5 mM EDTA. Prior to the assay, the enzymes were activated in the assay buffer for 5 min at 37 °C.
(§3) To determine the effect of inhibitors on enzyme activity, the following substrates were used: Z-Arg-Arg-AMC (final concentration 5 μM, Z-RR-AMC; Bachem, Bubendorf, Switzerland) for cathepsin B endopeptidase activity, Abz-Gly-Ile-Val-Arg-Ala-Lys-(Dnp)-OH (final concentration 1 μM, Abz-GIVRAK-(Dnp)-OH; Bachem) for cathepsin B exopeptidase activity, and Z-Phe-Arg-AMC (final concentration 2 μM, Z-FR-AMC; Bachem) for cathepsin V and L activity. The substrate ([…]) at a final concentration and inhibitor ([…]) at a concentration of 50 μM were added to the wells of a black microplate. The reaction was then initiated by adding 90 μL of activated enzyme (final concentrations: 5 nM cathepsin B for its endopeptidase activity, 0.5 nM cathepsin B for its exopeptidase activity, 2.5 ng/mL for cathepsin V, and 0.02 nM for cathepsin L) in the assay buffer. The formation of fluorescent degradation products during the reaction was continuously monitored at 460 ± 10 nm with excitation at 380 ± 20 nm for Z-Arg-Arg-AMC and Z-Phe-Arg-AMC and at 420 ± 10 nm with excitation at 320 ± 20 nm for Abz-Gly-Ile-Val-Arg-Ala-Lys(Dnp)-OH at 37 °C on a Tecan Infinite M1000 (Mannedorf, Switzerland) spectrofluorometer. All assay mixtures contained 5% (v/v) DMSO. To prevent false-positive inhibition due to the formation of compound aggregates, 0.01% Triton X-100 was used. All measurements were performed in triplicate and repeated twice. The relative inhibition was calculated using the following equation: relative inhibition (%) = 100(1 – v i/v o), where v i and v o designate the reaction velocities in the presence and absence of inhibitor, respectively.

[2] = molecular target: T2, cathepsin B (exopeptidase activity) (Homo sapiens, UniProt P07858); assay: Relative inhibition of cathepsin B exopeptidase activity; format: biochemical; conditions: 50 μM; substrate Abz-Gly-Ile-Val-Arg-Ala-Lys-(Dnp)-OH; pH 5.0
T2 construct: made in house; host or cells: E. coli
Text: as §1, §2, §3

cathepsin L = molecular target: T3, cathepsin L (Homo sapiens, UniProt P07711); assay: Relative inhibition of cathepsin L; format: biochemical; conditions: for relative inhibition cathepsin L: 50 μM, substrate Z-Phe-Arg-AMC, pH 5.5
T3 construct: made in house; host or cells: E. coli
T3 sequence (P07711 114-333): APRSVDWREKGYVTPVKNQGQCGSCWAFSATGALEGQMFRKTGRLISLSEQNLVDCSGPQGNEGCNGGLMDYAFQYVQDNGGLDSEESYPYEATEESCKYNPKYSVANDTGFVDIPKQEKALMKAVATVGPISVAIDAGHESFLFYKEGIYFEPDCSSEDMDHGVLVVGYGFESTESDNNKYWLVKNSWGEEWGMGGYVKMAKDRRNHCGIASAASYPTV
Text: as §1, §2, §3

cathepsin V = molecular target: T4, cathepsin V (Homo sapiens, UniProt O60911); assay: Relative inhibition of cathepsin V; format: biochemical; conditions: for relative inhibition cathepsin V: 50 μM, substrate Z-Phe-Arg-AMC, pH 5.5
T4 construct: made in house; host or cells: Pichia pastoris
T4 sequence (O60911 114-334): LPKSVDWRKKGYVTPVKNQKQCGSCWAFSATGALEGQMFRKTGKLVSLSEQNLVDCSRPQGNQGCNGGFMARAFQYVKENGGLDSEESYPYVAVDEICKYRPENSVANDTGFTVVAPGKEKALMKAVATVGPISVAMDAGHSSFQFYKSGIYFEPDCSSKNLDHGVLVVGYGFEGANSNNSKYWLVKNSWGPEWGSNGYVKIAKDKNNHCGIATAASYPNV
Text: as §1, §2, §3

[3] = molecular target: T5, human serum albumin (HSA) (Homo sapiens, UniProt P02768); conditions: reported value for similar complex; cited from earlier work
T5 construct: purchased Sigma-Aldrich/Merck A8763
T5 sequence (P02768 25-609): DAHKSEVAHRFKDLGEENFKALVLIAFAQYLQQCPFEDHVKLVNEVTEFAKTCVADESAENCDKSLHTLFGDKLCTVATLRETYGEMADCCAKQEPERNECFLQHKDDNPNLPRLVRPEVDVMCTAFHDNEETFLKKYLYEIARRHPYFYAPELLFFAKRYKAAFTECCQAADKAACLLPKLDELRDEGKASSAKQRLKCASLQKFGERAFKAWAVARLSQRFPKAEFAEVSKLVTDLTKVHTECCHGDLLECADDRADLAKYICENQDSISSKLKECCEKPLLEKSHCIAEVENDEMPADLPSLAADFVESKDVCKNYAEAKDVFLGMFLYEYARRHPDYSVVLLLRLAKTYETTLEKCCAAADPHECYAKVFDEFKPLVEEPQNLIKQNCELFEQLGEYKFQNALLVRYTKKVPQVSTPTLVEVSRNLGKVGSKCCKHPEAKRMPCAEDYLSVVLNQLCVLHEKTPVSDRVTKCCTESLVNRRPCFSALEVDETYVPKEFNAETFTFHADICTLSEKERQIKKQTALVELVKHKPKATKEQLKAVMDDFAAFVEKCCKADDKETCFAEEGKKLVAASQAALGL

S. aureus ATCC 25923 [4] = test system: S. aureus ATCC 25923; design: method as in our previous work; conditions: only on S. aureus strain; ref our previous work; cited from earlier work
HSV-2 = test system: HSV-2; design: method as in our previous work; conditions: ref our previous work; cited from earlier work
Colo205 cells = assay: MTT cytotoxicity assay, Colo205; format: cell-based, human; conditions: Homo sapiens, read-out: IC50 Colo205
Experimental: (§4) Its cytotoxicity was determined in the human HeLa cervical cancer cell line, the drug-sensitive Colo205 and its resistant counterpart, the ABCB1 expressing Colo320 colon adenocarcinoma cancer cell lines, using the colorimetric 3-(4,5-dimethylthiazol-2-yl)-2,5-diphenyltetrazolium bromide (MTT) test. To investigate the selectivity toward cancer cells, the noncancerous fibroblast CCD-19Lu cell line was included.
Drug-sensitive Colo205 (ATCC-CCL-222) and ABCB1 (MDR1)-LRP expressing and doxorubicin-resistant Colo320/MDR-LRP (ATCC-CCL-220.1) human colonic adenocarcinoma cell lines were purchased from LGC Promochem (Teddington, U.K.). The cells were cultured in RPMI 1640 medium supplemented with 10% heat-inactivated fetal bovine serum, 2 mM L-glutamine, 1 mM Na-pyruvate, and 10 mM HEPES.
(§5) The tested compound was dissolved in DMSO to prepare a 5 mM stock solution, which was diluted in complete culture medium, to study the effect of compounds on cell growth of human colonic adenocarcinoma cell lines. Doxorubicin was used as the positive control. The cells were treated with a trypsin-versene (EDTA) solution. Cells were adjusted to a density of 1 × 10^4 cells in 100 μL of the appropriate culture medium and were added to each well, with the exception of the medium control wells. Except for the semiadherent Colo205 and Colo320 cell lines, the other adherent cell lines were seeded 24 h prior to the assay. Then, stock solutions were diluted in the appropriate culture medium, and 2-fold serial dilutions of compounds were prepared in 100 μL of the medium, horizontally. The final volume of the wells containing compounds and cells was 200 μL. The plates were incubated at 37 °C for 72 h; at the end of the incubation period, 20 μL of MTT solution (from a stock solution of 5 mg/mL) was added to each well. […] Cell growth was determined by measuring the optical density (OD) at 540/630 nm with a Multiscan EX ELISA reader (Thermo Labsystems, Cheshire, WA). […]

S. aureus ATCC 25923 [5] = assay: Antibacterial MIC assay, S. aureus ATCC 25923; format: cell-based, Staphylococcus aureus; conditions: Staphylococcus aureus, ATCC25923; 18 h, visual inspection
Experimental: (§6) The antibacterial effect of the complex was tested against the Gram-negative strain Escherichia coli (E. coli) ATCC 25922, the Gram-positive reference strain Staphylococcus aureus (S. aureus) ATCC 25923, and the methicillin-resistant S. aureus MRSA ATCC 43300 strain. MRSA strains are responsible for several difficult-to-treat hospital-acquired infections.
(§7) The following bacterial strains were used in our experiments: Gram-positive S. aureus American Type Culture Collection (ATCC) 25923 as the methicillin-susceptible reference bacterial strain; methicillin-resistant S. aureus ATCC 43300 (MRSA) strain; E. coli ATCC 25922 as a Gram-negative bacterial strain.
(§8) MIC values of the complexes were determined in 96-well plates based on the Clinical and Laboratory Standard Institute guidelines (CLSI guidelines). The stock solutions of the compound (dissolved in DMSO at 5 mM concentration) were diluted in 100 μL of Mueller Hinton Broth. Then, 10^–4 dilution of an overnight bacterial culture in 100 μL of medium was added to each well, with the exception of the medium control wells.

[6] = test system: S. aureus MRSA ATCC 43300; assay: Antibacterial MIC assay, S. aureus MRSA ATCC 43300; format: cell-based, Staphylococcus aureus; conditions: Staphylococcus aureus, 18 h, read-out: MIC S. aureus MRSA ATCC 43300
Experimental: as §6, §7, §8

E. coli ATCC 25922 = assay: Antibacterial MIC assay, E. coli ATCC 25922; format: cell-based, Escherichia coli; conditions: Escherichia coli, ATCC25922, 18 h, read-out: MIC E. coli ATCC 25922
Experimental: as §6, §7, §8

CCD-19Lu cells = assay: MTT cytotoxicity assay, CCD-19Lu; format: cell-based, human; conditions: Homo sapiens, CCD 19Lu, 72 h incubation, noncancerous fibroblast
Experimental: as §4
as §5, with “horizontally.” for “horizontally. The final volume of the wells containing compounds and cells was 200 μL. The plates were incubated at 37 °C for 72 h; at the end of the incubation period, 20 μL of MTT solution (from a stock solution of 5 mg/mL) was added to each well.”

[7] = pH-dependent UV-vis spectrophotometry (solution speciation, pKa of aqua ligand); format: physicochemical
Text: However, at pH > ∼8, the spectrum changes considerably (Figure ).
The isosbestic point indicates a single equilibrium process, which is most likely deprotonation of the coordinated aqua ligand in complex 4a. This process was studied in our previous work for similar fac-[Re(CO)3] complexes formed with (N,N)-bearing ligands, and the calculated pK a (H2O) is around 8. […] Similar pK a values in the presence and absence of the chloride ions indicate a low chloride affinity of the aqua complex. Based on these values, the fraction of [Re(CO)3(pth)(H2O)] is 100% at pH = 7.4. The analogous half-sandwich complex [Ru(cym)(pth)(H2O)]^+ was also characterized by high solution stability, and a similarly high pK a value (10.34 (0.2 M KCl)).
For the solution studies, an Agilent Cary 3500 spectrophotometer was utilized to obtain UV–vis spectra in the wavelength range of 200–1100 nm. The path length ( l ) was 1 cm in all cases. The concentrations of the complex were between 10 and 60 μM. For investigation of the effect of chloride ions, the samples contained 60 μM complex and 0–7300 equiv of Cl^–. For HSA-containing samples, complex concentrations were 60 μM, and 0.5 equiv of biomolecule (or 6 equiv of MIM) was added for kinetic studies, respectively. Individual samples contained 0–34 μM HSA. The computer program HypSpec was used to obtain equilibrium constants.

With [C-]#[O+].[C-]#[O+].[C-]#[O+].[C-]#[O+].[C-]#[O+].[Cl][Re] [[Re(CO)5Cl], rhenium(I) pentacarbonyl chloride] the “relative inhibition cathepsin B endopeptidase” value [1] was 6.7 ± 0.7%, the “relative inhibition cathepsin B exopeptidase” value [2] was 12.2 ± 3.0% and the “relative inhibition cathepsin L” value (cathepsin L) was 1.6 ± 6.5%. For the same compound, the “relative inhibition cathepsin V” value (cathepsin V) was 4.6 ± 0.3%.
In the case of Cc1ccc(C(C)C)cc1.[Cl-].[O-][n+]1ccccc1[S-].[Ru+2] [[Ru(cym)(pth)Cl], [ruthenium(η^6-p-cymene)(pyrithionato)(chlorido)]], the “relative inhibition cathepsin B endopeptidase” value [1] is reported as 9.4 ± 1.8%, the “relative inhibition cathepsin B exopeptidase” value [2] is reported as 5.4 ± 7.2% and the “relative inhibition cathepsin L” value (cathepsin L) is reported as 1.5 ± 1.5%. The “relative inhibition cathepsin V” value (cathepsin V) was 1.7 ± 5.7%, the “log KQ quenching constant” value [3] was 5.81 and the “MIC S. aureus strain” value (S. aureus ATCC 25923 [4]) was 50 µM. For the same compound, the “inhibition of growth of the HSV-2 virus” value (HSV-2) was “did not inhibit the growth of the HSV-2 virus”.
N#Cc1ccccc1 [benzonitrile, reference compound] gave an IC50 (Colo205 cells; COLO 205, 72 h) greater than 100000 nM, an MIC (S. aureus ATCC 25923 [5]) greater than 100 µM and an MIC [6] greater than 100 µM. It also gave an MIC (E. coli ATCC 25922) greater than 100 µM.
Work on COc1cccc2c1C(=O)c1c(O)c3c(c(O)c1C2=O)C[C@@](O)(C(=O)CO)C[C@@H]3O[C@H]1C[C@H](N)[C@H](O)[C@H](C)O1 [doxorubicin, reference compound] yielded an IC50 (Colo205 cells; COLO 205, 72 h incubation, MTT) of 584 ± 55 nM and an IC50 (CCD-19Lu cells) of 244 ± 26 nM.
In the case of [O-][n+]1ccccc1S [pthH, Pyrithione], the inhibition at 50 µM ([1]; pH 6, read-out: relative inhibition cathepsin B endopeptidase) is reported as 4.3 ± 2.3%, the “relative inhibition cathepsin B exopeptidase” value [2] is reported as “n.i. ^a” and the inhibition at 50 µM (cathepsin L; pH 5.5, read-out: relative inhibition cathepsin L) is reported as 0.5 ± 1.9%. The inhibition at 50 µM (cathepsin V; pH 5.5, read-out: relative inhibition cathepsin V) was 2.3 ± 3.2%.
With [Re(CO)3(pth)(H2O)] [complex 4a] the “pKa (deprotonation of coordinated aqua ligand)” value ([7]; 0.1 M KCl, 25.0 °C) was 10.27 ± 0.01, the “pKa (deprotonation of coordinated aqua ligand)” value ([7]; 0.1 M KNO3) was 10.15 ± 0.01 and the “fraction of aqua complex” value ([7]; pH = 7.4, based on the pKa values) was 100%.
With zinc pyrithione the “relative inhibition cathepsin B endopeptidase” value [1] was 8.7 ± 2.2%, the “relative inhibition cathepsin B exopeptidase” value [2] was 11.1 ± 2.2% and the “relative inhibition cathepsin L” value (cathepsin L) was 1.3 ± 2.4%. For the same compound, the “relative inhibition cathepsin V” value (cathepsin V) was 1.9 ± 3.0%.
